Assay [1] concerns the target T1, DNA topoisomerase 2-alpha (Homo sapiens, UniProt P11388). In words: Inhibitory activity of compound against human DNA topoisomerase II, alpha was evaluated by ability to interfere with the relaxation of supercoiled plasmid DNA.
The target of assay [2] is T1, DNA topoisomerase 2-alpha. Briefly: Inhibitory concentration against human DNA topoisomerase II, alpha mediated relaxation of pBR322.
The test system of the next assay is HL-60. Briefly: Cytotoxicity of compound against HL60 cell line. Type of assay: functional, cell-based. Particulars: Homo sapiens.
A further assay relates to PC-3. Briefly: Cytotoxicity of compound against PC-3 cell line. Format: functional, cell-based. The conditions noted are these: Homo sapiens.
A further assay concerns P388. In words: Inhibitory activity of compound against P388 murine cell line; range is 0.3 uM-1.6 uM. Type of assay: functional, cell-based. Particulars: Mus musculus.
The target in assay [3] is T1, DNA topoisomerase 2-alpha. In words: Inhibitory concentration against human DNA topoisomerase II, alpha mediated relaxation of pBR322; no measurable activity.

IC50 data for four molecules are collected here from ChEMBL document CHEMBL1137930, “Critical structural motif for the catalytic inhibition of human topoisomerase II by UK-1 and analogs” (Bioorg Med Chem Lett, 2004).

T1 sequence (P11388 whole entry): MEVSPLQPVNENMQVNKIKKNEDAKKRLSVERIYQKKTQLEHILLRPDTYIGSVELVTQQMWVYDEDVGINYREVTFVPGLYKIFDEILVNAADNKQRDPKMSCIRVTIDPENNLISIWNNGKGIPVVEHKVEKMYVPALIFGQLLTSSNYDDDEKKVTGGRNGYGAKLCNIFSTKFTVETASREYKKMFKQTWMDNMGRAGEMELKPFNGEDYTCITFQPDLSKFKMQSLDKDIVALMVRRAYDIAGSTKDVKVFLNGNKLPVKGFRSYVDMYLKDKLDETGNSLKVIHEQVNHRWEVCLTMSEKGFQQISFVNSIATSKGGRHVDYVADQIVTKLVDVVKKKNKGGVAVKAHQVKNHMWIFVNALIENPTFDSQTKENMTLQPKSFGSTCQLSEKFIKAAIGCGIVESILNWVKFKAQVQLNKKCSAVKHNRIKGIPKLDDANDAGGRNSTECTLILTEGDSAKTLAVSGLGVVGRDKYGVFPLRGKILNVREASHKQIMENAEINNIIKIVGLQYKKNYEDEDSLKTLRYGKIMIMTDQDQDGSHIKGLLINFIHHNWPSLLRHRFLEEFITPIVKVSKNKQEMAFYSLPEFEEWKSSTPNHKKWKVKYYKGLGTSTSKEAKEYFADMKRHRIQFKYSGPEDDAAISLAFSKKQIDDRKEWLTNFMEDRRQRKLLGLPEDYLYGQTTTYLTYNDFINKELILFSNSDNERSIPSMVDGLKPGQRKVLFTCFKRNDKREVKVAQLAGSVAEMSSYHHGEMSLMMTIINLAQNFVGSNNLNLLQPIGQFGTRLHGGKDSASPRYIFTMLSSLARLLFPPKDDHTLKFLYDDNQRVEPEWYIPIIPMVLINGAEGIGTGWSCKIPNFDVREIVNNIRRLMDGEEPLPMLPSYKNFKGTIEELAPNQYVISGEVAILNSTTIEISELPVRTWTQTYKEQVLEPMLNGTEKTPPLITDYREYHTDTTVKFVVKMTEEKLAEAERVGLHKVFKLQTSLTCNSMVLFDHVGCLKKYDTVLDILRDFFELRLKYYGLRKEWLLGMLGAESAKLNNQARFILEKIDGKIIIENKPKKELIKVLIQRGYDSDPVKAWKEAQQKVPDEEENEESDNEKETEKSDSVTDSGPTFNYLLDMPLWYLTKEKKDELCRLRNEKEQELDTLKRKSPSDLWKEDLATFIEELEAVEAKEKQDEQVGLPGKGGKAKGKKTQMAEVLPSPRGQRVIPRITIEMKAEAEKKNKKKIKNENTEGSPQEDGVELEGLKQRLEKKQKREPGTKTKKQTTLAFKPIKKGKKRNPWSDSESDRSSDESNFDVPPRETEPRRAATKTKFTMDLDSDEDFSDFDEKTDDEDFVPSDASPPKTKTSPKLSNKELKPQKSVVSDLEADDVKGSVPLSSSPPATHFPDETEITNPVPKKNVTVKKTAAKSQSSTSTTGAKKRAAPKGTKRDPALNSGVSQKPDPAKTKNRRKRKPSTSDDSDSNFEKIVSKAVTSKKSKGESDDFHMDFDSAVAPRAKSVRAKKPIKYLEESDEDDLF

By IC50 is commonly meant the concentration that inhibits the measured activity by half. A low value points to inhibition by little substance. `COC(=O)c1cccc2oc(-c3cccc4oc(-c5ccccc5O)nc34)nc12`: the IC50 in assay [1] amounted to 32 µM; in assay [2], 50 µM; in the assay with HL-60 it was 0.32 µM; in the assay on PC-3 it was 0.4 µM; in the assay on P388, 0.3 µM.

`c1ccc(-c2nc3c(-c4nc5ccccc5o4)cccc3o2)cc1`: the IC50 in assay [3] was greater than 100 µM.

Regarding `Oc1ccccc1-c1nc2c(-c3nc4ccccc4o3)cccc2o1`, the IC50 in assay [1] and in assay [2] was 20 µM each time.

The molecule `COC(=O)c1cccc2oc(-c3cccc4oc(-c5ccccc5)nc34)nc12` came in with an IC50 in assay [2] of 38 µM.
